Source: patent US10667518B2, “Pesticidally active heterocyclic derivatives with sulphur containing substituents” (SYNGENTA PARTICIPATIONS AG, priority 2016, dated 2020)

How the values were obtained:
Assay type in all cases: in vivo
[1] = tested on: Diabrotica balteata (Corn Root Worm); assay: Diabrotica balteata (corn root worm) test on sprayed maize sprouts; settings: 96 h, application rate of 200 ppm, L2 larvae, 4 days after infestation, in comparison to untreated samples, read-out: effect in at least one of the two categories (mortality or growth inhibition)
Method: Example B2: Diabrotica balteata (Corn Root Worm)
Maize sprouts placed onto an agar layer in 24-well microtiter plates were treated with aqueous test solutions prepared from 10′000 ppm DMSO stock solutions by spraying. After drying, the plates were infested with L2 larvae (6 to 10 per well). The samples were assessed for mortality and growth inhibition in comparison to untreated samples 4 days after infestation.
(§1) The following compounds gave an effect of at least 80% in at least one of the two categories (mortality or growth inhibition) at an application rate of 200 ppm: P1, P2, P3, P4.

[2] = tested on: Spodoptera littoralis (Egyptian Cotton Leaf Worm); assay: Spodoptera littoralis (Egyptian cotton leaf worm) test on sprayed cotton leaf discs; settings: foliar, 72 h, application rate of 200 ppm, L1 larvae, 3 days after infestation, in comparison to untreated samples, read-out: control (mortality, anti-feeding effect, or growth inhibition)
Method: Example B8: Spodoptera littoralis (Egyptian Cotton Leaf Worm)
Cotton leaf discs were placed onto agar in 24-well microtiter plates and sprayed with aqueous test solutions prepared from 10′000 ppm DMSO stock solutions. After drying the leaf discs were infested with five L1 larvae. The samples were assessed for mortality, anti-feeding effect, and growth inhibition in comparison to untreated samples 3 days after infestation. Control of Spodoptera littoralis by a test sample is given when at least one of the categories mortality, anti-feedant effect, and growth inhibition is higher than the untreated sample.

[3] = tested on: Plutella xylostella (Diamond Back Moth); assay: Plutella xylostella (diamond back moth) artificial diet test; settings: 120 h, application rate of 200 ppm, L2 larvae, artificial diet treated by pipetting, 5 days after infestation, in comparison to untreated samples, read-out: effect in at least one of the two categories (mortality or growth inhibition)
Method: Example B7: Plutella xylostella (Diamond Back Moth)
24-well microtiter plates with artificial diet were treated with aqueous test solutions prepared from 10′000 ppm DMSO stock solutions by pipetting. After drying, the plates were infested with L2 larvae (10 to 15 per well). The samples were assessed for mortality and growth inhibition in comparison to untreated samples 5 days after infestation.
as §1

CCS(=O)(=O)c1cc(-c2cc(F)cc(F)c2)cnc1-n1cc2ncc(C(F)(F)F)cc2n1 [P1, 2-[5-(3,5-difluorophenyl)-3-ethylsulfonyl-2-pyridyl]-6-(trifluoromethyl)pyrazolo[4,3-b]pyridine]
≥ 80%: percent effect (mortality or growth inhibition) at 200 ppm [1] | percent control (mortality, anti-feedant effect or growth inhibition) at 200 ppm [2] | percent effect (mortality or growth inhibition) at 200 ppm [3]

CCS(=O)(=O)c1cc(-c2cccc(F)c2)cnc1-n1cc2ncc(C(F)(F)F)cc2n1 [P2]
≥ 80%: percent effect (mortality or growth inhibition) at 200 ppm [1] | percent control (mortality, anti-feedant effect or growth inhibition) at 200 ppm [2] | percent effect (mortality or growth inhibition) at 200 ppm [3]

CCS(=O)(=O)c1cc(-c2cc(F)cc(F)c2)cnc1-n1cc2ccc(C(F)(F)F)cc2n1 [P3, 2-[5-(3,5-difluorophenyl)-3-ethylsulfonyl-2-pyridyl]-6-(trifluoromethyl)indazole]
≥ 80%: percent effect (mortality or growth inhibition) at 200 ppm [1] | percent control (mortality, anti-feedant effect or growth inhibition) at 200 ppm [2] | percent effect (mortality or growth inhibition) at 200 ppm [3]

CCS(=O)(=O)c1cc(-c2cccc(F)c2)cnc1-n1cc2ccc(C(F)(F)F)cc2n1 [P4]
≥ 80%: percent effect (mortality or growth inhibition) at 200 ppm [1] | percent control (mortality, anti-feedant effect or growth inhibition) at 200 ppm [2] | percent effect (mortality or growth inhibition) at 200 ppm [3]
